# Test results taken from US8507498B2, “4, 6-disubstituted aminopyrimidine derivatives as inhibitors of protein kinases” (Ingenium Pharmaceuticals GmbH, priority 2007, dated 2013).
# Entries after “also recorded” stand apart in the source; their conditions may differ.
# Tests used:
# [1] = tested on: TNFα; assay: LPS in vivo assay, serum TNF alpha ELISA; conditions: LPS mice, 10 or 30 mg/kg single p.o. 30 min prior to LPS, blood 90 min after LPS, vs vehicle
# Protocol: (§1) For the LPS induced model of septic shock, mice receive an intraperitoneal (i.p.) injection of 30 μg bacterial Lipopolysaccharide (LPS; L2630 SIGMA) in saline. Said LPS-mediated initiation of the inflammatory signalling cascade results in increasing blood serum concentrations of cytokines such as e.g. TNFα, IL-6 and IL1β. Blood can be taken from these animals at defined time points. Thereafter, serum will be separated and the samples can be stored at −80° C. until cytokine concentrations are measured using commercial ELISA assays. (AL Moreira et al., Braz J Med Biol Res 1997; 30:1199-1207).
# (§2) Wildtype mice (strain C3HeB/FeJ) (age, sex and weight matched) were injected with 30 μg LPS (SIGMA) intraperitoneally. 90 minutes after LPS administration these animals were anaesthetized with 0.1 ml/10 g bodyweight Ketamine-Rompun (50/20 mg/ml) and blood for serum preparation was taken via cardiac puncture.
# (§3) Pharmacological treatment groups (n=4) of LPS mice received per os (p.o.) injections of CDK-inhibiting compounds or the vehicle (negative control), respectively. In particular, compounds 1, 5, 10, and 84 were administered.
# (§4) 10 or 30 mg/kg (compound per bodyweight) of a CDK inhibitor, dissolved in 20% DMSO, 5% Tween 80, 10% Tris 1M pH8, 20% PEG400, 45% PBS was administered as a single p.o. dosage 30 min prior to LPS stimulation. Vehicle control was administered in the same manner.
# (§5) 90 minutes (min) after LPS stimulation, blood samples were taken from the mice. Previously, the 90 min time point had been identified as the peak of TNF alpha expression in this animal model by a time course experiment.
# (§6) Blood samples (˜500 μl/animal) from the LPS animals were incubated on wet ice for 30 min after cardiac puncture. Afterwards the samples were centrifuged for 15 min at 13.000 rpm. Serum was separated from the clot and stored frozen at −80° C.
# (§7) Serum concentrations of TNF alpha and IL6 within the samples were measured by using commercial ELISA Kits (Natutec) according to the manufacturers instructions.
# [2] = tested on: IL6; assay: LPS in vivo assay, serum IL6 ELISA; conditions: LPS mice, 10 or 30 mg/kg single p.o. 30 min prior to LPS, blood 90 min after LPS, vs vehicle
# Protocol: as §1, §2, §3, §4, §5, §6, §7
# [3] = tested on: TNFα expression in LPS-induced THP-1 macrophages; assay: In vitro THP-1 assay, TNFα ELISA; format: cell-based, human; conditions: 0.5 to 5 μM, 60 min pre-incubation, vs DMSO
# Protocol: (§8) THP-1 cells are grown in modified RPMI-1640 medium (ATCC, Cat. No. 30-2001) supplemented with 10% FCS and 1% Pen/Strep. For cytokine inhibition assays, cells are seeded at a density of 5×10^5 cells/ml into 6-well plates in standard growth medium supplemented with 100 ng/ml PMA (Sigma, P1585) to induce differentiation into macrophage-like cells. After 24 hours, the medium is replaced with standard growth medium (without PMA) and the cells are incubated for another 48 hours to complete differentiation. […] Cells are incubated for 60 min with compounds prior to stimulation with 100 ng/ml LPS (Sigma, L2630) for another 4-48 hours. Supernatants are collected and assayed immediately for cytokine expression, e.g. for TNFα, IL-6 and IL-1b using commercially available sandwich ELISA assays (eBioscience, Cat. No 88-7346, 88-7066, 88-7010) or kept frozen at […] until evaluation. Concentrations of TNFα, IL6 and IL1β within the cell culture supernatants are measured by using commercial ELISA Kits (eBioscience) according to the manufacturer's instructions. CDK-inhibitory compounds # 1, 2, 3, 5, 16, 18, 19 and 32 were administered to differentiated THP-1 cells in triplicates as described above (see section 2.). After 60 min of pre-incubation with test or reference compound (SB203580, a p38 inhibitor and BMS345541, an IKK-inhibitor) alone, cells were stimulated with LPS. After incubation for 4-48 h, supernatants were collected and ELISA based determinations of cytokine supernatant concentrations were performed as described in section 3, supra.
# [4] = tested on: IL6 expression in LPS-induced THP-1 macrophages; assay: In vitro THP-1 assay, IL6 ELISA; format: cell-based, human; conditions: 0.5 to 5 μM, 60 min pre-incubation, vs DMSO
# Protocol: as §8
SMILES,melting point,inhibition of TNFα expression in the supernatant [3],inhibition of IL6 expression in the supernatant [4],further results
CCCS(=O)(=O)Nc1cc(Nc2cc(-c3cccc([N+](=O)[O-])c3)ncn2)ccc1C,202 to 203.5 °C,–,–,–
"CCOc1ccccc1-c1cc(Nc2cccc(CS(N)(=O)=O)c2)ncn1 [Compound 1, {3-[6-(2-Ethoxy-phenyl)-pyrimidin-4-ylamino]-phenyl}-methanesulfonamide]",236.3 to 238.6 °C,significant inhibitory effect; also recorded: significant inhibition,significant inhibitory effect; also recorded: significant inhibition,TNFα protein concentration in the blood serum [1]: significant repressive effect; IL6 protein concentration in the blood serum [2]: significant repressive effect
"COc1cc(F)ccc1-c1cc(Nc2cccc(CS(N)(=O)=O)c2)ncn1 [Compound 3, {3-[6-(4-Fluoro-2-methoxy-phenyl)-pyrimidin-4-ylamino]-phenyl}-methanesulfonamide]",–,significant inhibitory effect; also recorded: significant inhibition,significant inhibitory effect; also recorded: significant inhibition,–
"CC(C)Oc1ccccc1-c1cc(Nc2cccc(CS(N)(=O)=O)c2)ncn1 [Compound 5, {3-[6-(2-Isopropoxy-phenyl)-pyrimidin-4-ylamino]-phenyl}-methanesulfonamide]",–,–,significant inhibition,TNFα protein concentration in the blood serum [1]: significant repressive effect; IL6 protein concentration in the blood serum [2]: significant repressive effect
"COc1ccccc1-c1cc(Nc2cccc(CS(=O)(=O)NC(C)C)c2)ncn1 [Compound 10, N-Isopropyl-C-{3-[6-(2-methoxy-phenyl)-pyrimidin-4-ylamino]-phenyl}-methanesulfonamide]",–,–,–,TNFα protein concentration in the blood serum [1]: significant repressive effect; IL6 protein concentration in the blood serum [2]: significant repressive effect
"COc1ccccc1-c1cc(Nc2cccc(CS(=O)(=O)NC3CCCC3)c2)ncn1 [Compound 16, N-Cyclopentyl-C-{3-[6-(2-methoxy-phenyl)-pyrimidin-4-ylamino]-phenyl}-methanesulfonamide]",–,significant inhibitory effect; also recorded: significant inhibition,significant inhibitory effect; also recorded: significant inhibition,–
"CCOc1ccccc1-c1cc(Nc2cccc(CS(=O)(=O)NC3CC3)c2)ncn1 [Compound 18, N-Cyclopropyl-C-{3-[6-(2-ethoxy-phenyl)-pyrimidin-4-ylamino]-phenyl}-methanesulfonamide]",–,significant inhibitory effect; also recorded: significant inhibition,significant inhibitory effect; also recorded: significant inhibition,–
"CCOc1ccccc1-c1cc(Nc2cccc(CS(=O)(=O)NC(C)(C)C)c2)ncn1 [Compound 19, N-tert-Butyl-C-{3-[6-(2-ethoxy-phenyl)-pyrimidin-4-ylamino]-phenyl}-methanesulfonamide]",–,significant inhibitory effect; also recorded: significant inhibition,significant inhibitory effect; also recorded: significant inhibition,–
"NS(=O)(=O)Cc1cccc(Nc2cc(-c3ccccc3OCc3ccccc3)ncn2)c1 [Compound 32, {3-[6-(2-Benzyloxy-phenyl)-pyrimidin-4-ylamino]-phenyl}-methanesulfonamide]",–,significant inhibitory effect; also recorded: significant inhibition,significant inhibitory effect; also recorded: significant inhibition,–
"COCCCNS(=O)(=O)Cc1cccc(Nc2cc(-c3ccccc3OC)ncn2)c1 [Compound 33, C-{3-[6-(2-Methoxy-phenyl)-pyrimidin-4-ylamino]-phenyl}-N-(3-methoxy-propyl)-methanesulfonamide]",149.2 to 150.8 °C,–,–,–
"COCCOc1ccccc1-c1cc(Nc2cccc(CS(C)(=O)=O)c2)ncn1 [Compound 57, (3-Methanesulfonylmethyl-phenyl)-{6-[2-(2-methoxy-ethoxy)-phenyl]-pyrimidin-4-yl}-amine]",141 to 142.9 °C,–,–,–
"NS(=O)(=O)Cc1cccc(Nc2cc(-c3cccc(C(F)(F)F)c3)ncn2)c1 [Compound 63, {3-[6-(3-Trifluoromethyl-phenyl)-pyrimidin-4-ylamino]-phenyl}-methanesulfonamide]",221.5 to 223 °C,–,–,–
"CS(=O)(=O)Cc1cccc(Nc2cc(-c3ccccc3OCC3CCCO3)ncn2)c1 (stereo not drawn) [Compound 64, (3-methanesulfonylmethyl-phenyl)-{6-[2-(tetrahydro-furan-2-ylmethoxy)-phenyl]-pyrimidin-4-yl}-amine]",160 to 162.6 °C,–,–,–
"COc1ccccc1-c1cc(Nc2cccc(CS(=O)(=O)CCCN(C)C)c2)ncn1 [Compound 84, [3-(3-Dimethylamino-propane-1-sulfonylmethyl)-phenyl]-[6-(2-methoxy-phenyl)-pyrimidin-4-yl]-amine]",–,–,–,TNFα protein concentration in the blood serum [1]: significant repressive effect; IL6 protein concentration in the blood serum [2]: significant repressive effect

# More lines, main results first:
melting point,SMILES,inhibition of TNFα expression in the supernatant [3],inhibition of IL6 expression in the supernatant [4],further results
211.7 to 213.1 °C,"COc1ccccc1-c1cc(Nc2cccc(CS(N)(=O)=O)c2)nc(N)n1 [Compound 66, {3-[2-amino-6-(2-methoxy-phenyl)-pyrimidin-4-ylamino]-phenyl}-methanesulfonamide]",–,–,–
171 to 172 °C,"CNS(=O)(=O)Cc1cccc(Nc2cc(-c3ccccc3COC)ncn2)c1 [Compound 80, C-{3-[6-(2-methoxymethyl-phenyl)-pyrimidin-4-ylamino]-phenyl}-N-methyl-methanesulfonamide]",–,–,–
168.4 to 169.4 °C,"NS(=O)(=O)Cc1cccc(Nc2cc(-c3ccccc3OCC3CCCO3)ncn2)c1 (stereo not drawn) [Compound 82, (3-{6-[2-(tetrahydro-furan-2-ylmethoxy)-phenyl]-pyrimidin-4-ylamino}-phenyl)-methanesulfonamide]",–,–,–
209 to 211.1 °C,"COCCOc1ccccc1-c1cc(Nc2cccc(CS(N)(=O)=O)c2)nc(C)n1 [Compound 83, (3-{6-[2-(2-methoxy-ethoxy)-phenyl]-2-methyl-pyrimidin-4-ylamino}-phenyl)-methanesulfonamide]",–,–,–
214 to 216.1 °C,"CS(=O)(=O)c1cccc(Nc2cc(-c3ccccc3O)ncn2)c1 [Reference Example 49, 2-[6-(3-methanesulfonyl-phenylamino)-pyrimidin-4-yl]-phenol]",–,–,–
199 to 205 °C,"CS(=O)(=O)c1cccc(Nc2cc(-c3ccccc3OCc3ccccc3)ncn2)c1 [Reference Example 51, [6-(2-benzyloxy-phenyl)-pyrimidin-4-yl]-(3-methanesulfonyl-phenyl)-amine]",–,–,–
